#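 Method: 48-hour compound exposure of cells in 96-well plates, five concentrations, linear interpolation of endpoints. The concentration for 50% growth inhibition is given as GI50. TGI is the concentration that stops growth completely.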
# Assays:
# Experiment in all cases: DTP human tumour cell line panel, 48 h
# 786-0 renal = system: 786-0 renal
# HL-60(TB) leukemia = system: HL-60(TB) leukemia
# MCF7 breast = system: MCF7 breast
# MDA-MB-435 = system: MDA-MB-435
# NCI/ADR-RES ovarian = system: NCI/ADR-RES ovarian
# PC-3 prostate = system: PC-3 prostate
# RPMI-8226 leukemia = system: RPMI-8226 leukemia
# SF-539 CNS = system: SF-539 CNS
# SK-MEL-2 melanoma = system: SK-MEL-2 melanoma
# SNB-75 CNS = system: SNB-75 CNS
Structure (SMILES),GI50 (786-0 renal),TGI (786-0 renal),GI50 (HL-60(TB) leukemia),TGI (HL-60(TB) leukemia),GI50 (MCF7 breast),TGI (MCF7 breast),GI50 (MDA-MB-435),TGI (MDA-MB-435),GI50 (NCI/ADR-RES ovarian),TGI (NCI/ADR-RES ovarian),GI50 (PC-3 prostate),TGI (PC-3 prostate),GI50 (RPMI-8226 leukemia),TGI (RPMI-8226 leukemia),GI50 (SF-539 CNS),TGI (SF-539 CNS),GI50 (SK-MEL-2 melanoma),TGI (SK-MEL-2 melanoma),GI50 (SNB-75 CNS),TGI (SNB-75 CNS)
[O]=[W](=[O])([OH])[OH],> 100 µM,> 100 µM,> 100 µM,> 100 µM,> 100 µM,> 100 µM,> 100 µM,> 100 µM,> 100 µM,> 100 µM,> 100 µM,> 100 µM,> 100 µM,> 100 µM,> 100 µM,> 100 µM,> 100 µM,> 100 µM,> 100 µM,> 100 µM
COc1ccc2c(c1)c(-c1nc(-c3cn(C)c4ncccc34)cs1)cn2CCCCN1CCOCC1,1.57 µM,3.44 µM,1.84 µM,4.37 µM,1.71 µM,3.67 µM,1.12 µM,2.58 µM,1.72 µM,5.05 µM,1.12 µM,3.26 µM,1.25 µM,3.89 µM,1.56 µM,3.02 µM,2.05 µM,4.29 µM,0.873 µM,2.67 µM
CC(C)NCCCCCNc1cc(O)cc2cccnc12,> 100 µM,> 100 µM,0.751 µM,4.36 µM,18.7 µM,> 100 µM,> 100 µM,> 100 µM,> 100 µM,> 100 µM,> 100 µM,> 100 µM,> 23.1 µM,> 100 µM,> 100 µM,> 100 µM,> 100 µM,> 100 µM,> 58.2 µM,> 100 µM
Cc1ccc2nc(CC(=O)c3ccc4ccccc4c3)c(=O)[nH]c2c1,,> 100 µM,,> 100 µM,,> 100 µM,,> 100 µM,,> 100 µM,,> 100 µM,,> 100 µM,,> 100 µM,,> 100 µM,,> 100 µM
CC(=O)OC1CC(C)c2c(Cl)ncnc21 (stereo unspecified),> 100 µM,> 100 µM,> 100 µM,> 100 µM,> 100 µM,> 100 µM,> 100 µM,> 100 µM,> 100 µM,> 100 µM,> 100 µM,> 100 µM,> 100 µM,> 100 µM,> 100 µM,> 100 µM,> 100 µM,> 100 µM,> 100 µM,> 100 µM
O=C(Nc1ccc(Cl)cc1F)c1cc(Cl)ccc1O,1.09 µM,7.03 µM,0.389 µM,1.96 µM,0.442 µM,10.2 µM,0.499 µM,5.26 µM,0.364 µM,2.38 µM,1.28 µM,5.64 µM,0.302 µM,1.75 µM,0.432 µM,4.58 µM,0.338 µM,1.72 µM,0.456 µM,3.77 µM
NCC(=O)NC(CO)C(=O)O (stereo unspecified),,> 100 µM,,> 100 µM,,> 100 µM,,> 100 µM,,> 100 µM,,> 100 µM,,> 100 µM,,> 100 µM,,> 100 µM,,> 100 µM
COc1ccc(NC(=O)CC(=O)n2nc(-c3ccccc3)c(N=Nc3ccccc3C)c2-c2ccccc2)cc1,,35.5 µM,,> 100 µM,,> 100 µM,,> 100 µM,,> 100 µM,,32.8 µM,,> 100 µM,,28.8 µM,,56.9 µM,,36.6 µM
COc1cc(/C=N/Nc2ncnc3c2cnn3Cc2ccccc2)ccc1O,6.92 µM,18.8 µM,> 18.5 µM,> 25 µM,> 18 µM,> 25 µM,> 23.1 µM,> 25 µM,7.35 µM,> 25 µM,11.7 µM,> 25 µM,> 18.5 µM,> 25 µM,8.12 µM,24.4 µM,16.7 µM,> 25 µM,3.29 µM,11.4 µM
O=C(Nc1ccc(O)c(NS(=O)(=O)c2ccc(F)cc2)c1)c1ccc(-c2ccccc2)cc1,7.87 µM,22.7 µM,1.4 µM,5.34 µM,3.85 µM,17.4 µM,8.12 µM,26 µM,5.67 µM,20.7 µM,3.84 µM,16.7 µM,2.87 µM,18.2 µM,8.93 µM,22.4 µM,15.1 µM,46.2 µM,2.68 µM,15.7 µM
O=C(Nc1cccc(-n2cc(-c3ccncc3)c(-c3ccc(O)c(Cl)c3)n2)c1)c1ccc(N2CCOCC2)c(C(F)(F)F)c1,0.982 µM,> 50 µM,1.2 µM,3.15 µM,2.03 µM,> 50 µM,5 µM,> 50 µM,4.24 µM,> 50 µM,2.39 µM,> 50 µM,1.04 µM,4.24 µM,1.04 µM,> 50 µM,34 µM,> 50 µM,0.745 µM,> 50 µM
COc1ccc(OC)c(-c2cc(C(=O)O)c3cc4ccccc4cc3n2)c1,,> 100 µM,,> 100 µM,,> 100 µM,,> 100 µM,,> 100 µM,,> 100 µM,,> 100 µM,,> 100 µM,,> 100 µM,,> 100 µM
Cc1ccc(C)c(N2C(=O)C(=O)c3c(C)ccc(C)c32)c1,,> 100 µM,,> 100 µM,,59 µM,,46.4 µM,,62.9 µM,,> 100 µM,,,,36.4 µM,,68.4 µM,,> 100 µM
O=C(NCc1cccs1)OC1CC2CCC1C2 (stereo unspecified),,> 100 µM,,> 100 µM,,> 100 µM,,> 100 µM,,> 100 µM,,> 100 µM,,> 100 µM,,> 100 µM,,> 100 µM,,
O=C(OC(CNc1c(C(=O)c2ccccc2)c(=O)n(Cc2ccccc2)c(=O)n1Cc1ccccc1)CN1CCCCC1)c1ccccc1 (stereo unspecified),14.9 µM,29.4 µM,14.8 µM,33.8 µM,20.7 µM,39.4 µM,18.5 µM,37.7 µM,17.6 µM,34.5 µM,13.1 µM,26.4 µM,13.8 µM,31.8 µM,21.7 µM,42.2 µM,19.1 µM,34.8 µM,,

# From PubChem BioAssay (NCI)
